The values below come from PMC3634352 (Journal of the American Chemical Society, 2013).

Data set [1] addresses T1, S. aureus SgtB (Staphylococcus aureus, UniProt Q99T05).
T1 sequence (Q99T05 1-269): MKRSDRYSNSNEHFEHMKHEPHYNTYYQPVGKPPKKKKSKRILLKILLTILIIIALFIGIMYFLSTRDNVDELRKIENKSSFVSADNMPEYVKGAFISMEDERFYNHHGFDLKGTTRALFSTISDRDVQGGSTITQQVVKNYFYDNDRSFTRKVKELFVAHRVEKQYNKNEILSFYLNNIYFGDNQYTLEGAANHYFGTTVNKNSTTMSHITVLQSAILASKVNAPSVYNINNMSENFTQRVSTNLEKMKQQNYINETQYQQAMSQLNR
The format is binding. The conditions noted are these: for drop in FP (probe displacement) when used instead of moenomycin: detergent controls.

A further data set concerns the target E. coli PBP1b (Escherichia coli, UniProt P02919). In words: in vitro PGT inhibition. The format is biochemical.
Data set [2] has as its target T1, S. aureus SgtB. Format: biochemical.
The conditions of data set [3]: background statement; cited from earlier work.

Sequence of E. coli PBP1b (P02919 whole entry): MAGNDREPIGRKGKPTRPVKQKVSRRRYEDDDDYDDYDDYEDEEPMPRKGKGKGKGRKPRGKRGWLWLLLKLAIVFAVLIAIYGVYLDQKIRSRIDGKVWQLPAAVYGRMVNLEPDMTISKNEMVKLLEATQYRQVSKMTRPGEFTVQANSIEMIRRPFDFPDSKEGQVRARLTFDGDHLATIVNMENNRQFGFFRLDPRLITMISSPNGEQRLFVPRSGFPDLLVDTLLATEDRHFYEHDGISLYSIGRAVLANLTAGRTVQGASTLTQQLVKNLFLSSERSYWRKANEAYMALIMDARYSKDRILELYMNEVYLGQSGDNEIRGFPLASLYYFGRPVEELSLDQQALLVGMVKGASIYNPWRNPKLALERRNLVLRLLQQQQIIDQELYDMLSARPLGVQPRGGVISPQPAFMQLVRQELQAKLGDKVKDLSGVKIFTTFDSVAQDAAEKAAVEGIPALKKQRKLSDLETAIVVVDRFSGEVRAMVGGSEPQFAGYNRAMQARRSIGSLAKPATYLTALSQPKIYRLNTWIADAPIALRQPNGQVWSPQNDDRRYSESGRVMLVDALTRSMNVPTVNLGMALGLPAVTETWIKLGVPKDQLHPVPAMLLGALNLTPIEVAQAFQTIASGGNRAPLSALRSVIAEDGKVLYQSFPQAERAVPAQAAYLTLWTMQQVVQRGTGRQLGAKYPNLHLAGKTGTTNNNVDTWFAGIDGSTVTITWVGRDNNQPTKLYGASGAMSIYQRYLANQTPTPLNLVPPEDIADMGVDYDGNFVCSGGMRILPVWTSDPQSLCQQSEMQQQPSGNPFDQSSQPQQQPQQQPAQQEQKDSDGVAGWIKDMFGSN

On to `CCCCCCCCCCCCO[C@@H]1O[C@H](CO)[C@@H](O[C@H]2O[C@H](CO)[C@@H](O)[C@H](O)[C@H]2O)[C@H](O)[C@H]1O` [dodecyl maltoside], for which, at S. aureus SgtB [1], the “drop in FP (probe displacement) when used instead of moenomycin” value was “no significant drop in FP”.

Broadly, the Ki is the equilibrium dissociation constant of an inhibitor or competing ligand from its target. Turning to moenomycin A [compound 1], the “inhibition of enzyme (in words)” value at E. coli PBP1b is “low-nanomolar inhibition”. In addition, the “inhibition of enzyme (in words)” value at S. aureus SgtB [2] was “low-nanomolar inhibition”. Further, the Ki at S. aureus SgtB [1] (read-out: Ki, displacement of probe 2, probe 2 75 nM, S. aureus SgtB 0.2 μM) amounted to 640 nM. Also, in data set [3], the oral bioavailability entry is on record as “poor oral bioavailability” and the serum half life entry is “long serum half life”.

Consider tween-20, for which, on S. aureus SgtB [1], the “drop in FP (probe displacement) when used instead of moenomycin” value is “no significant drop in FP”.
